Measurements reported in PubChem BioAssay (NCI).
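Assay format: 96-well plates, 48-hour exposure. Definition used: TGI = concentration required for complete inhibition of growth.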

Columns and labels:
Experiment in all cases: growth of human tumour cells (NCI), 48 h
[1] = tested on: MALME-3M melanoma
[2] = tested on: RXF 393 renal
[3] = tested on: RPMI-8226 leukemia
[4] = tested on: T-47D breast
[5] = tested on: KM12 colon
[6] = tested on: MDA-N
[7] = tested on: HS 578T breast
[8] = tested on: U251 CNS
[9] = tested on: OVCAR-5 ovarian
[10] = tested on: PC-3 prostate
[11] = tested on: HT29 colon
[12] = tested on: SN12C renal
[13] = tested on: K-562 leukemia
[14] = tested on: CAKI-1 renal
[15] = tested on: SNB-19 CNS

Row | Compound | TGI [1] [µM] | TGI [2] [µM] | TGI [3] [µM] | TGI [4] [µM] | TGI [5] [µM] | TGI [6] [µM] | TGI [7] [µM] | TGI [8] [µM] | TGI [9] [µM] | TGI [10] [µM] | TGI [11] [µM] | TGI [12] [µM] | TGI [13] [µM] | TGI [14] [µM] | TGI [15] [µM]
1 | O=C1c2ccccc2C(=O)c2[nH]c(=O)c(/C=N/Nc3ccc([N+](=O)[O-])cc3)nc21 | 2.78 | 33.4 | > 61.2 | > 95 | > 100 | 2.63 | 21.1 | > 37.6 | > 76.5 | > 57.9 | > 21.5 | 37.2 | > 65.4 | > 75.2 | > 100
2 | O=C(c1cccs1)N(C(=S)OCc1ccccn1)c1ccccc1 | 44 | > 100 | > 100 | > 100 | > 100 | > 100 | > 100 | > 100 | > 100 | > 100 | > 100 | > 100 | > 100 | > 100 | > 100
3 | COc1ccc(C(F)(F)F)cc1NC(=O)O/N=C(/Cl)C(C)C | 24.7 | 36.8 | 6.05 | 45.5 | > 60.2 | 32.4 | > 78.3 | > 58.2 | 39.1 | 34.5 | 53.3 | 32.2 | 3.99 | 3.18 | 42.6
4 | O=C1C=CC(=O)c2c(O)c(Nc3ccc(OC(F)(F)F)cc3)c(Cl)c(O)c21 | 2.47 | 1.39 | 0.285 | 0.972 | 2.95 | 5.2 | 10.8 | 2.05 | 3.16 | 9.62 | 1.28 | 1.17 | 4.36 | 2.96 | 2.6
5 | CNC(=S)N/N=C(\C)c1ccc(OC)cc1O | > 100 | > 100 | > 100 | > 100 | > 100 | > 100 | > 100 | > 100 | > 100 | > 100 | > 100 | > 100 | > 100 | > 100 | > 100
6 | COc1ccc(C(=O)N=C2N(c3ccccc3)C(=Nc3ccccc3)C(=Nc3ccccc3)N2c2ccccc2)cc1 | > 58.3 | 25.8 | > 100 | > 100 | > 100 | > 100 | 96.5 | > 87.9 | > 100 | > 65.5 | > 100 | > 100 | > 100 | > 100 | > 100
7 | C[C@@H]1O[C@@H]2OCC[C@@H]2C2=C1C(=O)c1ccccc1C2=O | 4.95 | 13.3 | 30.9 | 31.9 | 30.7 | 3.35 | > 100 | 29.5 | 4.3 | > 100 | > 100 | 29.8 | 32.7 | 29.8 | 36.5
8 | COc1ccc(Oc2nc3cc(C(F)(F)F)ccc3nc2C(C)C)cc1 | 72.4 | 40.7 | 42.4 | 54.4 | > 100 | > 100 | > 100 | 50.8 | 77.4 | > 100 | 44.6 | 59.7 | 86.7 | > 100 | > 100
9 | COc1ccc(-n2c(C)nc3ccc(N=Cc4ccccc4)cc3c2=O)cc1 | > 100 | > 100 | > 100 | > 100 | > 100 | > 100 | > 100 | > 100 | > 100 | > 100 | > 100 | > 100 | > 100 | > 100 | > 100
10 | C/C(=N/NC(=S)Nc1cccc(Cl)c1)c1cccc(/C(C)=N\NC(=S)Nc2cccc(Cl)c2)n1 | 22.4 | > 43.9 | 15.9 | > 100 | > 100 | > 65.7 | > 74.6 | > 59.3 | > 85.8 | > 58.1 | > 42.4 | > 46.3 | > 40.4 | > 48.1 | > 100
11 | O=c1[nH]ncc2[nH]c3c(c12)CCCc1ccccc1-3 | > 100 | 41.9 | 84.9 | > 100 | > 100 | 98.8 | 45.8 | > 100 | > 100 | > 100 | > 100 | > 100 | > 100 | > 100 | > 100
12 | OC(CCN1CCN(CCOC(c2ccc(F)cc2)c2ccc(F)cc2)CC1)c1ccccc1 (stereo not given) | 26.8 | 24.1 | 43 | 28.7 | 44 | 28.5 | 37.3 | 27.8 | 27.8 | 26.7 | 21.6 | 29.4 | 26.4 | 33.6 | 30.7
